Measurements as given in US8962606B2, “Substituted benzosulphonamides” (Bayer Intellectual Property GmbH, priority 2009, dated 2015).

Assays:
[1] = test system: A375 cells [human melanoma cell line, expressing mutant BRAF V600E]; assay: A375 Crystal Violet (CV) Proliferation Assay [Assay 5]; assay type: cell-based; details: A-375, 96 h, crystal violet staining, 4 days incubation
Procedure: Assay 5: A375 Crystal Violet (CV) Proliferation Assay:
Cell proliferation for A375 cells [human melanoma cell line, expressing mutant BRAF V600E] was measured by crystal violet (CV) staining: Cultivated human A375 cells were plated out in a density of 1500 cells/measurement point in 200 μl of growth medium (DMEM/HAMS F12 with 10% FBS and 2 mM Glutamine) in a 96-well multititer plate. After 24 hours, the cells from a plate (zero plate) were stained with crystal violet (see below), while the medium in the other plates was replaced by fresh culture medium (200 μl) to which the test substances had been added in various concentrations (0 μM, and in the range 0.3 nM-30 μM; the final concentration of the solvent dimethyl sulphoxide was 0.5%). The cells were incubated in the presence of the test substances for 4 days. The cell proliferation was determined by staining the cells with crystal violet: the cells were fixed by adding 20 μl/measurement point of an 11% glutaraldehyde solution at room temperature for 15 min. After the fixed cells had been washed three times with water, the plates were dried at room temperature. The cells were stained by adding 100 μl/measurement point of a 0.1% crystal violet solution (pH adjusted to pH 3 by adding acetic acid). After the stained cells had been washed three times with water, the plates were dried at room temperature. The dye was dissolved by adding 100 μl/measurement point of a 10% acetic acid solution, and the extinction was determined by photometry at a wavelength of 595 nm. The percentage change in cell growth was calculated by normalizing the measurements to the extinctions of the zero point plate (=0%) and the extinction of the untreated (0 μM) cells (=100%). The IC50 values were determined by means of a 4-parameter fit using the company's own software.

MEK1/2 = details: second-generation MEK1/2 inhibitor, background [17]; cited from earlier work
colon cancer = details: oral treatment, mouse models, background [18]; cited from earlier work
[2] = test system: HCT116 cells [human colorectal cell line]; assay: HCT116 Cell Titer Glo (CTG) Proliferation Assay [Assay 1]; assay type: cell-based; details: HCT-116, 72 hours incubation
Description: Cell Titer Glo Proliferation Assay
The adherent tumor cell proliferation assay used to test the compounds of the present invention involves a readout called Cell Titre-Glo developed by Promega (Cunningham, B A “A Growing Issue: Cell Proliferation Assays. Modern kits ease quantification of cell growth” The Scientist 2001, 15(13), 26, and Crouch, S P et al., “The use of ATP bioluminescence as a measure of cell proliferation and cytotoxicity” Journal of Immunological Methods 1993, 160, 8 1-88).
Assay 1: HCT116 Cell Titer Glo (CTG) Proliferation Assay:
(§1) HCT116 cells [human colorectal cell line, expressing […]] were plated at a density of 3000 cells/well in 96 well black-clear bottom tissue culture plates (Costar 3603 black/clear bottom) in 100 μl/well DMEM medium (DMEM/Ham's F12) with 10% Fetal Bovine Serum (FBS) and stable Glutamine incubated at 37° C. Sister wells were plated in separate plate for time zero determination. All plates were incubated overnight at 37° C. Take down time zero plate: 100 μl/well CTG solution (Promega Cell Titer Glo solution) were added to time zero wells in sister plate; the plates were mixed for 2 min on orbital shaker to ensure cell lysis, incubated for 10 minutes, luminescence was read on VICTOR3 (Perkin Elmer). Twenty-four hours after cell seeding, test compounds were diluted in 50 μl medium and were added at a final concentration range from as high 10 μM to as low […] depending on the activities of the tested compounds in serial dilutions at a final DMSO concentration of 0.4%. Cells were incubated for 72 hours at 37° C. after addition of the test compound. Then, using a Promega Cell Titer Glo Luminescent® assay kit, 100 μl microliter lysis buffer containing of the enzyme luciferase and its substrate, luciferin mixture, were added to each well and incubated for 10 min at room temperature in the dark to stabilize luminescence signal. The samples were read on VICTOR3 (Perkin Elmer) using Luminescence protocol. The percentage change in cell growth was calculated by normalizing the measurements to the extinctions of the zero point plate (=0%) and the extinction of the untreated (0 μM) cells (=100%). The IC50 values were determined by means of a 4-parameter fit using the company's own software.

[3] = test system: A549 cells [human non small cell lung cancer cell line, expressing mutant K-Ras G12S]; assay: A549 Cell Titer Glo (CTG) Proliferation Assay [Assay 2]; assay type: cell-based; details: 72 hours incubation
Procedure: as §1
Assay 2: A549 Cell Titer Glo (CTG) Proliferation Assay:
A549 cells [human non small cell lung cancer cell line, expressing mutant K-Ras G12S] were seeded at a density of 2000 cells/well in 96 well black-clear bottom tissue culture plates (Costar 3603 black/clear bottom) in 100 μl/well DMEM medium (DMEM/Ham's F12) with 10% Fetal Bovine Serum (FBS) and stable Glutamine incubated at 37° C. Cell Titer Glo proliferation assays for A549 cells were performed with the same protocol as described afore for HCT116 cells.

Compound	IC50 [1] [nM]	IC50 [2] [nM]	IC50 [3] [nM]	IC50 (MEK1/2)	colon cancer growth in vivo (colon cancer)
NS(=O)(=O)Nc1cc(Oc2cc(F)cc(Nc3ccc(I)cc3F)c2NS(=O)(=O)C2CC2)ccc1F [Example 14, N-{4-fluoro-2-[(2-fluoro-4-iodophenyl)amino]-6-[4-fluoro-3-(sulfamoylamino)phenoxy]phenyl}cyclopropanesulfonamide]	18.6				
O=C(NOCC1CC1)c1ccc(F)c(F)c1Nc1ccc(I)cc1Cl [PD184352]				low nanomolar range	inhibit colon cancer growth in vivo
C#Cc1ccc(Nc2cc(F)cc(Oc3cccc(NS(=O)(=O)CC)c3)c2NS(=O)(=O)C2CC2)c(F)c1 [Example 9, N-(2-{3-[(ethylsulfonyl)amino]phenoxy}-6-[(4-ethynyl-2-fluorophenyl)amino]-4-fluorophenyl)cyclopropanesulfonamide]	2.39	59.6	137		
CCS(=O)(=O)Nc1cccc(Oc2cc(F)cc(Nc3ccc(I)cc3F)c2NS(=O)(=O)C(C)C)c1 [Example 4, N-(2-{3-[(ethylsulfonyl)amino]phenoxy}-4-fluoro-6-[(2-fluoro-4-iodophenyl)amino]-phenyl)propane-2-sulfonamide]	15.6	53.7	92.5		
C#Cc1ccc(Nc2cc(F)cc(Oc3cccc(NS(=O)(=O)CC)c3)c2NS(N)(=O)=O)c(F)c1 [Example 10, N-(3-{3-[(4-ethynyl-2-fluorophenyl)amino]-5-fluoro-2-(sulfamoylamino)phenoxy}phenyl)ethanesulfonamide]	7.93	70	86.7		
CCS(=O)(=O)Nc1cccc(Oc2cc(F)cc(Nc3ccc(I)cc3F)c2NS(=O)(=O)CC)c1 [Example 3, N-(3-{2-[(ethylsulfonyl)amino]-5-fluoro-3-[(2-fluoro-4-iodophenyl)amino]-phenoxy}phenyl)-ethanesulfonamide]	1.56	31.7	73.6		
NC(=O)c1c(Nc2ccc(I)cc2F)cc(F)cc1Oc1cccc(NS(N)(=O)=O)c1 [reference compound]	4.53	208	319		
CCS(=O)(=O)Nc1cccc(Oc2cc(F)cc(Nc3ccc(I)cc3F)c2NS(N)(=O)=O)c1 [Example 6, N-(3-{5-fluoro-3-[(2-fluoro-4-iodophenyl)amino]-2-(sulfamoylamino)phenoxy}phenyl)ethanesulfonamide]	2.44	100	68.9		
NS(=O)(=O)Nc1cccc(Oc2cc(F)cc(Nc3ccc(I)cc3F)c2NS(=O)(=O)C2CC2)c1 [Example 11, N-{4-fluoro-2-[(2-fluoro-4-iodophenyl)amino]-6-[3-(sulfamoylamino)phenoxy]phenyl}cyclopropanesulfonamide]		7.04	6.65		

Second part, led by results:

IC50 [1] [nM]	IC50 [2] [nM]	IC50 [3] [nM]	Compound	IC50 (MEK1/2)	colon cancer growth in vivo (colon cancer)
0.68	10	4.78	CCS(=O)(=O)Nc1cccc(Oc2cc(F)cc(Nc3ccc(I)cc3F)c2NS(N)(=O)=O)c1C [Example 8, N-(3-{5-fluoro-3-[(2-fluoro-4-iodophenyl)amino]-2-(sulfamoylamino)phenoxy}-2-methylphenyl)ethanesulfonamide]		
0.729	32	36.1	CC(C)S(=O)(=O)Nc1cccc(Oc2cc(F)cc(Nc3ccc(I)cc3F)c2NS(=O)(=O)C2CC2)c1 [Example 12, N-(4-fluoro-2-[(2-fluoro-4-iodophenyl)amino]-6-{3-[(isopropylsulfonyl)amino]phenoxy}phenyl)cyclopropanesulfonamide]		
0.351	26.5	18.1	CCS(=O)(=O)Nc1cccc(Oc2cc(F)cc(Nc3ccc(I)cc3F)c2NS(=O)(=O)C2CC2)c1 [Example 1, N-(2-{3-[(ethylsulfonyl)amino]phenoxy}-4-fluoro-6-[(2-fluoro-4-iodophenyl)amino]phenyl)cyclopropanesulfonamide]		
0.171	3		CCS(=O)(=O)Nc1cccc(Oc2cc(F)cc(Nc3ccc(I)cc3F)c2NS(=O)(=O)C2CC2)c1C [Example 7, N-(2-{3-[(ethylsulfonyl)amino]-2-methylphenoxy}-4-fluoro-6-[(2-fluoro-4-iodophenyl)amino]phenyl)cyclopropanesulfonamide]		
0.899	28.3	39.4	CCS(=O)(=O)Nc1cccc(Oc2cc(F)cc(Nc3ccc(I)cc3F)c2NS(C)(=O)=O)c1 [Example 2, N-(3-{5-fluoro-3-[(2-fluoro-4-iodophenyl)amino]-2-[(methylsulfonyl)-amino]phenoxy}-phenyl)ethane-sulfonamide]		
